Each structure is given as a SMILES string. Values joined by “and” are separate entries in the source; they are usually repeats but may differ in a detail not shown here. Equal entries are not always repeated. Inconclusive results and toxic doses are left out.

The experiment deals with L1210 leukemia ip in BDF1 mice, survival T/C. Nature of the experiment: NCI In Vivo Anticancer Drug Screen. Data for tumor model L1210 Leukemia (intraperitoneal) in B6D2F1 (BDF1) mice. Conditions: endpoint: mean survival time, higher = longer survival. In a few lines:
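Transplantable tumor model; survival measured in treated vs vehicle control mice. Value = treated/control.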

Setting [1] is: dose: 100.0 mg/kg/injection, schedule: Q01DX009 (ip), vehicle: other.
[2] abbreviates: dose: 100.0 mg/kg/injection, schedule: Q04DX003 (ip), vehicle: saline.
Where [3] appears, read: dose: 400.0 mg/kg/injection, schedule: Q01DX009 (ip), vehicle: other.
The mark [4] stands for this setting: dose: 400.0 mg/kg/injection, schedule: Q04DX003 (ip), vehicle: saline.
Where [5] appears, read: dose: 25.0 mg/kg/injection, schedule: Q04DX002 (ip), vehicle: saline with Tween-80.
The mark [6] stands for this setting: dose: 50.0 mg/kg/injection, schedule: Q04DX002 (ip), vehicle: saline with Tween-80.
[7] abbreviates: dose: 100.0 mg/kg/injection, schedule: Q04DX002 (ip), vehicle: saline with Tween-80.
Setting [8] is: dose: 100.0 mg/kg/injection, schedule: Q04DX002 (ip), vehicle: Klucel (hydroxypropylcellulose) (HPC).
The mark [9] stands for this setting: dose: 200.0 mg/kg/injection, schedule: Q04DX002 (ip), vehicle: Klucel (hydroxypropylcellulose) (HPC).
[10] abbreviates: dose: 400.0 mg/kg/injection, schedule: Q04DX002 (ip), vehicle: Klucel (hydroxypropylcellulose) (HPC).
The mark [11] stands for this setting: dose: 100.0 mg/kg/injection, schedule: Q01DX001 (ip), vehicle: carboxymethylcellulose (CMC).
[12] abbreviates: dose: 400.0 mg/kg/injection, schedule: Q01DX001 (ip), vehicle: carboxymethylcellulose (CMC).
The mark [13] stands for this setting: dose: 200.0 mg/kg/injection, schedule: Q04DX003 (ip), vehicle: saline.
Setting [14] is: dose: 50.0 mg/kg/injection, schedule: Q01DX001 (ip), vehicle: carboxymethylcellulose (CMC).
Where [15] appears, read: dose: 50.0 mg/kg/injection, schedule: Q01DX009 (ip), vehicle: saline with Tween-80.
Where [16] appears, read: dose: 100.0 mg/kg/injection, schedule: Q01DX009 (ip), vehicle: saline with Tween-80.
The mark [17] stands for this setting: dose: 100.0 mg/kg/injection, schedule: Q04DX003 (ip), vehicle: Klucel (hydroxypropylcellulose) (HPC).
The mark [18] stands for this setting: dose: 400.0 mg/kg/injection, schedule: Q04DX003 (ip), vehicle: Klucel (hydroxypropylcellulose) (HPC).
Setting [19] is: dose: 100.0 mg/kg/injection, schedule: Q01DX009 (ip), vehicle: Klucel (hydroxypropylcellulose) (HPC).
Setting [20] is: dose: 200.0 mg/kg/injection, schedule: Q01DX009 (ip), vehicle: Klucel (hydroxypropylcellulose) (HPC).
Setting [21] is: dose: 400.0 mg/kg/injection, schedule: Q01DX009 (ip), vehicle: Klucel (hydroxypropylcellulose) (HPC).

For `CNC(=O)c1ccc(NC(=O)Nc2cccc(C3=NCCN3)c2)cc1NC(=O)Nc1cccc(C2=NCCN2)c1`, the T/C runs as follows: (dose: 4.5 mg/kg/injection, schedule: Q01DX Z (ip), vehicle: carboxymethylcellulose (CMC)) 97 % of control; (dose: 9.0 mg/kg/injection, schedule: Q01DX Z (ip), vehicle: carboxymethylcellulose (CMC)) 113 % of control; (dose: 36.0 mg/kg/injection, schedule: Q01DX Z (ip), vehicle: carboxymethylcellulose (CMC)) 160 % of control.

Turning to `Cc1ccc(N2C(=O)CC(Sc3ccccc3N)C2=O)cc1` (centres undefined), the T/C reads like this: under setting [1], 114 % of control; under setting [2], 86 % of control; (dose: 200.0 mg/kg/injection, schedule: Q01DX009 (ip), vehicle: other) 110 % of control; under setting [3], 93 % of control; under setting [4], 86 % of control.

As for `CC(N)CCC(C)(C)O` (centres undefined), the T/C was 93 % of control (dose: 50.0 mg/kg/injection, schedule: Q01DX009 (ip), vehicle: saline) and 90 % of control (dose: 100.0 mg/kg/injection, schedule: Q01DX009 (ip), vehicle: saline).

For `CNCCC(=O)NCC1C(c2ccccc2)C1c1ccccc1` (centres undefined), the T/C (dose: 6.25 mg/kg/injection, schedule: Q04DX002 (ip), vehicle: saline with Tween-80) was 97 % of control; the T/C (dose: 12.5 mg/kg/injection, schedule: Q04DX002 (ip), vehicle: saline with Tween-80) is 93 % of control and 96 % of control; the T/C under setting [5] is 100 % of control; the T/C under setting [6] is 91 % of control; the T/C under setting [7] is 93 % of control and 88 % of control.

`CCOC(=O)N/N=C/c1ccc(O)cc1`: the T/C is 91 % of control under setting [8], 102 % of control under setting [9] and 91 % of control under setting [10].

Regarding `Nc1ncnc2c1ncn2C1OC(CO)C(N)C1O` (centres undefined), the T/C was 105 % of control (dose: 1.3 mg/kg/injection, schedule: Q01DX Z (ip), vehicle: carboxymethylcellulose (CMC)); 108 % of control (dose: 2.0 mg/kg/injection, schedule: Q01DX Z (ip), vehicle: carboxymethylcellulose (CMC)); 113 % of control (dose: 3.0 mg/kg/injection, schedule: Q01DX Z (ip), vehicle: carboxymethylcellulose (CMC)).

Turning to `CCCC(CCC)(S(=O)(=O)CC)S(=O)(=O)CC`, the T/C is, setting by setting: under setting [11], 97 % of control; (dose: 200.0 mg/kg/injection, schedule: Q01DX001 (ip), vehicle: carboxymethylcellulose (CMC)) 97 % of control; under setting [12], 92 % of control.

In the case of `O=C(O)/C=C/c1ccccc1C(=O)O`, the T/C reads like this: under setting [2], 100 % of control; under setting [13], 91 % of control; under setting [4], 103 % of control.

With `Nc1nc(SCc2ccccc2)c2ncn(C3OC(CO)CC3O)c2n1` (centres undefined), the T/C is 113 % of control (dose: 25.0 mg/kg/injection, schedule: Q01DX009 (ip), vehicle: other); 110 % of control under setting [14]; 158 % of control (dose: 50.0 mg/kg/injection, schedule: Q01DX009 (ip), vehicle: other); 116 % of control under setting [11]; 158 % of control under setting [1]; 150 % of control under setting [12]. Also, the T/C is 95 % of control under setting [3] and 155 % of control (dose: 600.0 mg/kg/injection, schedule: Q01DX001 (ip), vehicle: carboxymethylcellulose (CMC)).

For `Oc1ccccc1-c1nc2ccccc2o1`, the T/C was 98 % of control under setting [6]; 95 % of control under setting [7]; 92 % of control (dose: 200.0 mg/kg/injection, schedule: Q04DX002 (ip), vehicle: saline with Tween-80).

Turning to `CC(C)c1cccc(OS(=O)(=O)c2ccccc2[N+](=O)[O-])c1`, the T/C by setting is: (dose: 25.0 mg/kg/injection, schedule: Q01DX009 (ip), vehicle: saline with Tween-80) 105 % of control; under setting [15], 105 % of control; under setting [16], 105 % of control; under setting [17], 93 % of control; under setting [18], 96 % of control.

Consider `Cc1onc(-c2ccccc2Cl)c1C(=O)NC(=S)NC1CC(C)CC(C)(C)C1` (centres undefined), for which the T/C under setting [5] is 97 % of control, the T/C under setting [6] was 90 % of control and the T/C under setting [7] is 90 % of control.

On to `CC(=O)Nc1ccc([I+]c2ccc([N+](=O)[O-])cc2)cc1`, for which the T/C runs as follows: (dose: 6.25 mg/kg/injection, schedule: Q01DX009 (ip), vehicle: Klucel (hydroxypropylcellulose) (HPC)) 90 % of control; (dose: 12.5 mg/kg/injection, schedule: Q01DX009 (ip), vehicle: Klucel (hydroxypropylcellulose) (HPC)) 98 % of control; (dose: 25.0 mg/kg/injection, schedule: Q01DX009 (ip), vehicle: Klucel (hydroxypropylcellulose) (HPC)) 104 % of control; (dose: 50.0 mg/kg/injection, schedule: Q01DX009 (ip), vehicle: Klucel (hydroxypropylcellulose) (HPC)) 106 % of control; under setting [19], 101 % of control; (dose: 200.0 mg/kg/injection, schedule: Q01DX009 (ip), vehicle: saline with Tween-80) 109 % of control.

On to `CN1CCS(=O)(=O)C1=O`, for which the T/C reads like this: (dose: 9.5 mg/kg/injection, schedule: Q01DX001 (ip), vehicle: saline) 98 % of control; (dose: 19.0 mg/kg/injection, schedule: Q01DX001 (ip), vehicle: saline) 98 % of control; (dose: 38.0 mg/kg/injection, schedule: Q01DX001 (ip), vehicle: saline) 109 % of control.

In the case of `O=S1(=O)CC2C3C=CC(O3)C21` (centres undefined), the T/C is 102 % of control (dose: 75.0 mg/kg/injection, schedule: Q01DX001 (ip), vehicle: carboxymethylcellulose (CMC)) and 98 % of control (dose: 150.0 mg/kg/injection, schedule: Q01DX001 (ip), vehicle: carboxymethylcellulose (CMC)).

Take `Nc1nc2c(c(-c3ccccc3)n1)CN(CCCC(=O)O)C2=O`: the T/C reads like this: (dose: 100.0 mg/kg/injection, schedule: Q01DX001 (ip), vehicle: saline) 103 % of control; under setting [2], 100 % of control; (dose: 200.0 mg/kg/injection, schedule: Q01DX001 (ip), vehicle: saline) 105 % of control; under setting [13], 98 % of control; (dose: 400.0 mg/kg/injection, schedule: Q01DX001 (ip), vehicle: saline) 97 % of control; under setting [4], 100 % of control.

Take `Cc1cccc(NC(=O)Nc2ccccc2Cl)n1`: the T/C is 87 % of control under setting [8], 87 % of control under setting [9] and 90 % of control under setting [10].

Take `COc1ccc(/C=N/NC(=O)COCC(=O)N/N=C/c2ccc(OC)c(OC)c2)cc1OC`: the T/C runs as follows: under setting [19], 101 % of control; under setting [20], 95 % of control; under setting [21], 92 % of control.

Regarding `O=C1CCS(=O)(=O)CC1`, the T/C is, setting by setting: (dose: 50.0 mg/kg/injection, schedule: Q04DX003 (ip), vehicle: saline with Tween-80) 92 % of control; (dose: 100.0 mg/kg/injection, schedule: Q04DX003 (ip), vehicle: saline with Tween-80) 90 % of control; (dose: 200.0 mg/kg/injection, schedule: Q04DX003 (ip), vehicle: saline with Tween-80) 89 % of control.

Turning to `C=CCN(CC=C)c1nc(Cl)nc(Cl)n1`, the T/C under setting [14] was 106 % of control, the T/C under setting [11] is 98 % of control, the T/C under setting [8] is 105 % of control and the T/C under setting [9] was 101 % of control.

On to `c1ccc(NNC(c2ccccc2)(c2ccccc2)c2ccccc2)cc1`, for which the T/C was 101 % of control under setting [19]; 101 % of control under setting [17]; 98 % of control under setting [20]; 95 % of control (dose: 200.0 mg/kg/injection, schedule: Q04DX003 (ip), vehicle: Klucel (hydroxypropylcellulose) (HPC)); 92 % of control under setting [21]; 95 % of control under setting [18].

Consider `CC(C)(CCl)COS(=O)(=O)c1ccc(Br)cc1`, for which the T/C by setting is: under setting [15], 90 % of control; under setting [16], 90 % of control.

Values taken from PubChem BioAssay AID248 (DTP/NCI, 2004).
